Test results: ChEMBL document CHEMBL3507680, “University of Dundee, Gates Library screen for HepG2 cell viability”

assay: Human HepG2 cell viability assay in 384 well format; assay type: toxicity, cell-based; set-up: dose 125 nL, time 70.5 hour; concentration not given beside the values; settings: HepG2 cells, read-out: Inhibition

Compound | cytotoxicity at 70.5 h
CCS(=O)(=O)NCCCNCc1c(C)nn(C)c1N(C)C | 21.5%
O=C(O)C1CN(Cc2cccc(-c3ccccn3)c2)CCO1 (centres undefined) | -9.06%
CN1CCC(N(Cc2ccco2)S(=O)(=O)c2ccc(Cl)cc2)CC1 | -3.29%
O=C(NCc1ccccc1Cn1ccnc1)N1CCSCC1 | -6.06%
CCC(=O)N1CCC2(CCN(Cc3cccc(F)c3)CC2)CC1 | -1.29%
c1ccc(CO[C@H]2CO[C@@]3(CCN(Cc4ccoc4)C3)C2)nc1 | -18.7%
CC(=O)c1ccc(N2CCN(C(=O)c3cnn4c3OCCC4)CC2)cc1 | 1.33%
Cc1nn(C)c(C)c1CC(=O)N1CCCN(c2cccnn2)CC1 | 5.97%
CCC(CC(=O)NS(=O)(=O)C(C)C)c1ccccc1 (centres undefined) | 11.1%
CCc1[nH]ncc1C(=O)N1CCN(c2nccc(OC)n2)CC1 | -3.61%
c1ccc(Cc2noc(-c3ccc(NCC4CCCCO4)nc3)n2)cc1 (centres undefined) | 26.1%
CCOC(=O)N1CCN(C(=O)CCn2ccc3c(OC)cccc32)CC1 | -9.78%
COc1ccc(CN2CCO[C@H]3CN(C(=O)C4CC4)CC[C@H]3C2=O)cc1 | -12%
O=S(=O)(Nc1ncccc1F)c1cc(Cl)cc2c1OCC2 | 6.97%
CC(C)c1nc(C2CCCN(c3cnc4ccccc4n3)C2)no1 (centres undefined) | -5.55%
Cc1nn(C)c(C)c1CC(=O)N1CCCC(n2ccnc2)C1 (centres undefined) | -3.37%
COc1ccc(-c2cc(C(=O)NCCn3ccnc3)n(C)n2)cc1 | 19.2%
CCOc1cc(CNc2nnn(C)n2)ccc1OCc1ccc(Cl)cc1 | -10.2%
Cc1cccc(CN2CCc3nnc(CN4CCCC4=O)n3CC2)n1 | -16.9%
CN(C)CCn1ccc2cc(NC(=O)NCc3ccon3)ccc21 | -8.32%
COCc1nc2cc(NCc3ncc[nH]3)ccc2o1 | -3.38%
CNC(=O)CCc1cc(C)nc(C2CCN(c3cnccn3)CC2)c1 | 0.777%
CC(C(N)=O)n1nc(-c2cccs2)cc(N)c1=O (centres undefined) | -3.21%

Compound | cytotoxicity at 70.5 h
Cc1nc(NC(=O)C2CCCN(C(=O)C3CC3)C2)sc1C (centres undefined) | -14.8%
COc1ccc2c(c1)OCC(CNC(=O)c1ccc(=O)n(C)c1)C2 (centres undefined) | -10%
CCOc1ccccc1CNC1CCCN(Cc2noc(C)n2)C1 (centres undefined) | -9.86%
CNC(=O)CCC(=O)N1CCOC(c2ccc3cc(OC)ccc3c2)C1 (centres undefined) | -3.11%
CCc1noc(C(C)N2CCN(CC)CC2)n1 (centres undefined) | -8.24%
Cc1ccccc1CN1CCNC(=O)C1CC(=O)NCC1CCCCC1 (centres undefined) | -7.5%
CCCc1nc(C)c(C(=O)NS(=O)(=O)c2ccc(C#N)cc2)s1 | -5.99%
COc1cc(C(=O)N2Cc3cnc(C(C)(C)C)nc3C2)ccn1 | -2.74%
Cc1cnn(CC2CCCCN2C(=O)CCCc2nc(C)no2)c1 (centres undefined) | -5.29%
O=C(NC[C@]12COC[C@H]1CN(Cc1cccnc1)C2)c1ccno1 | -14.7%
CNC(=O)[C@@H](c1ccccc1OC)N1CCC[C@H]1C(=O)N1CC[C@@H](O)C1 | -3.98%
CC[C@@]1(O)CCN(C(=O)CCNC(=O)c2ccc(F)cc2)C[C@H]1O | -5.99%
N#CCCn1cnc2c(Br)cccc2c1=O | -14.7%
O=C(c1ccncc1F)N1CC2CC1(C(=O)N1CCCC1)C2 | -11.2%
CN1CCOC(CN(C(=O)CC2CCCC2)c2nccs2)C1 (centres undefined) | 4.76%
NC(=O)C1CCN(CC(=O)N2CCCC2c2ccsc2)CC1 (centres undefined) | -4.16%
CCCOCC(=O)NS(=O)(=O)c1ccc2c(c1)OCCCO2 | 19.6%
Cc1nc(O)cc(C2CCCN(C(=O)c3cccc(N(C)C)c3)C2)n1 (centres undefined) | 5.24%
COc1ccc(-c2cc(C3(O)CCCC3)on2)cc1 | 1.51%
CCOC(=O)C1CCN(C(=O)CN2CCCC2c2cc(C)no2)CC1 (centres undefined) | -17.8%
O=C(c1ccc(=O)[nH]n1)N1CCc2ccccc21 | -0.117%
CCCNC(=O)CN1CCOC(CC)C1 (centres undefined) | -15.7%
CCNC(=O)C1(Cc2cc(-c3ccccc3)no2)CCCN(C(C)C)C1 (centres undefined) | -6.54%

Compound | cytotoxicity at 70.5 h
Cc1noc(C)c1CNC(=O)C(C)Oc1ccccc1F (centres undefined) | -4.89%
COCCc1noc(-c2cn(Cc3ccc(OC)cc3)nn2)n1 | 7.6%
Cc1cc(C)nc(NCCCC(=O)NCCn2ccc3ccccc32)n1 | -30.2%
CCC(NC(=O)C1CCN(S(C)(=O)=O)CC1)c1ccc(OC)c(C)c1 (centres undefined) | -9.2%
CCc1nnc2n1CCN(Cc1noc(-c3cccc(C)c3)n1)C2 | -2.11%
COc1ccccc1-c1ccccc1CC1(C(=O)O)CCNCC1 | 0.76%
CC(O)(CNC(=O)NCc1cccc(-n2cncn2)c1)c1ccco1 (centres undefined) | 7.59%
O=C1CCCN1Cc1ncn2c1CN(C(=O)C1CC=CC1)CCC2 | -5.43%
Cc1cc(N(C)C)nc(N2CCCC2c2cc(C)on2)n1 (centres undefined) | -1.73%
CCN1CCN(S(=O)(=O)N2CCc3ccccc3C2)[C@H]2CS(=O)(=O)C[C@H]21 | -9.8%
CCN1CCC(CNC(=O)Nc2cccnc2OC)CC1 | -6.19%
CCN1CCC2(CC1)CC(NCc1cccc(C)n1)c1ccccc1O2 (centres undefined) | -16.9%
O=C(c1ccccc1F)N1CCN(c2ccc(-n3cccc3)nn2)CC1 | -8.46%
CCOc1ncccc1NC(=O)c1cccs1 | -10.3%
COc1nc2cc(C)ccc2cc1CN(C)Cc1n[nH]c2c1CCCC2 | 2.69%
CCn1ccc(NC(=O)C2CCC(=O)N2Cc2ccc(C)o2)n1 (centres undefined) | -4.94%
Cc1ccc(-c2noc(C3CCN3C(=O)c3c(C)noc3C)n2)s1 (centres undefined) | -3.14%
O=C(CCO)N1C[C@H]2CC[C@@H]1CN(C1Cc3ccccc3C1)C2 | -9.88%
Cc1cc2c(c(-c3c[nH]c(C)n3)c1)OC(CN)C2 (centres undefined) | 2.12%
CCc1nc(N)nc(N2CCCC3(CN(C)C(=O)O3)C2)c1C (centres undefined) | -10.4%
CC(=O)N1CCCn2nc(CNS(=O)(=O)N(C)C(C)C)cc2C1 | -14.6%
COc1ccc(OCC(C)NS(C)(=O)=O)cc1 (centres undefined) | -3.53%
CC(C)(C)n1cc(C2=CCN(CCc3ccccn3)CC2)cn1 | -5.94%

Compound | cytotoxicity at 70.5 h
Cc1cccc(N2CC3(CCN(S(=O)(=O)c4ccccc4)C3)CC2=O)c1 (centres undefined) | -6.5%
CCCNC(=O)c1cc(Br)c2c(c1)OCCO2 | -9.42%
CC(C)(CN)NS(=O)(=O)c1cccc(F)c1F | 9.16%
COCCN1CCN(Cc2ccncc2)[C@H]2CS(=O)(=O)C[C@H]21 | -6.81%
CCCSCC(=O)N1CCCC(c2nccn2Cc2ccncc2)C1 (centres undefined) | 25.6%
COCCCN1C(=O)c2ccc(C(=O)NCCc3c[nH]cn3)cc2C1=O | 1.41%
CCCc1ccc2oc(C(=O)N3CCN(CCOC)CC3)c(C)c2c1 | -2.68%
Cc1ncc(CNC2CC(=O)N(CCc3cccc(Cl)c3)C2)n1C (centres undefined) | -9.98%
O=C1CC(NS(=O)(=O)c2ccc(F)c(Cl)c2)CN1 (centres undefined) | 0.519%
Cc1cccc(C(=O)N2CCC(c3n[nH]c(C4CC4)n3)CC2)c1 | 20.7%
CCc1ccc(CN2CCC3(CC2)CC(N2CCN(C)CC2)CO3)cc1 (centres undefined) | 7.28%
CNC(=O)c1nc(COc2ccc3c(c2)OCO3)no1 | -9.82%
O=C(O)c1cccc(S(=O)(=O)N2CCOc3ccccc32)c1 | -12.8%
Nc1cc(C(=O)NCC2CCN(Cc3ccncc3F)C2)ccn1 (centres undefined) | 20.9%
CCN(CC)S(=O)(=O)N1CCCC(c2cccc(C(=O)O)c2)C1 (centres undefined) | -6.99%
CCn1ccnc1CN1CCCC(N(C)CCc2ccccc2)C1 (centres undefined) | -1.22%
FC(F)(F)c1cc(NCCn2ncnn2)nc(-c2cccnc2)n1 | -9.6%
CC(C)C1CN(c2cccc(C#N)n2)CCCN1Cc1ccc(F)cc1 (centres undefined) | -15.7%
CNC(=O)C1CCN(C(=O)c2ccn(-c3ccc(F)cc3)n2)CC1 | -15%
Cc1ccc(-c2nc(CN3CCn4c(nnc4C4CC4)C3)co2)cc1 | -5.93%
CN(Cc1cnn(C)c1)C(=O)NC1CCN(c2ncccn2)CC1 | 12.2%
CN1CCN(c2ccccc2NC(=O)NCCc2ccccc2)CC1 | -5.11%
O=C1COc2cc(C(=O)NS(=O)(=O)c3ccc(F)cc3)ccc2N1 | -17.6%

Compound | cytotoxicity at 70.5 h
CCN(C(C)=O)c1nc(CN2CCCC2Cn2cncn2)cs1 (centres undefined) | 17.8%
CC(C)(C)CNC(=O)c1ccc(C(=O)O)cn1 | 23.3%
Cn1nccc1NCc1cc2cc(F)ccc2o1 | 23.2%
OCC1(O)CCCN(Cc2ccccc2OCCc2ccccc2)CC1 (centres undefined) | -5.14%
CCOc1ncnc2c1CCN(Cc1cccs1)CC2 | -8.1%
O=C(CCNc1ccc(Cl)cn1)NCc1ccncc1 | -8.13%
CCn1cnc(NC(=O)N2CCC(c3ccc(F)cc3)C2)n1 (centres undefined) | -8.46%
CCc1nnc(NC(=O)NCCN(C)C(=O)OC(C)(C)C)s1 | -9.9%
Cc1cc(C)c2cc(CNCCCN3CCOCC3)c(=O)[nH]c2c1 | -7.01%
O=C(C1CNCCN1C(=O)CCc1cccnc1)N1CCOCC1 (centres undefined) | 3.27%
O=C(Nc1cc(C(F)(F)F)c[nH]c1=O)C1CCCCN1 (centres undefined) | -8.9%
Cc1ccc(OC2(C(=O)O)CCN(C(=O)c3cc(C)oc3C)CC2)cn1 | 4.69%
Cc1nc(CN2C(=O)COC3(CCN(Cc4ccco4)CC3)C2C)cs1 (centres undefined) | -1.55%
O=C(c1ccc2c(c1)CCC2)N1CCN(c2ccc(Cl)cn2)CC1 | 6.01%
Clc1ccccc1-c1nnc(CSCCN2CCOCC2)o1 | -2.19%
CCCC(=O)N1CCC(c2cc3n(n2)[C@@H](C(F)(F)F)C[C@@H](C)N3)CC1 | -3.97%
CC(C)C(=O)N1CCN(C(=O)c2cscn2)[C@H]2CS(=O)(=O)C[C@H]21 | -2.25%
Cc1cc(S(=O)(=O)N2CCOCC2C#N)ccc1F (centres undefined) | 13.3%
CNC(=O)C1CCC(NC(=O)c2cc(C3CC3)n(C(C)(C)C)n2)CC1 (centres undefined) | -6.36%
CSCCN1C(=O)CC(C)(c2ccc(Br)cc2)C1=O (centres undefined) | -5.43%
Cc1cc(CN2CCN(C(=O)NCCCc3cn[nH]c3C)CC2)on1 | -4.02%
CS(=O)(=O)N(Cc1ccon1)c1ccc2c(c1)OCO2 | -6.03%
